Results from paper PMC8692984 (Frontiers in Pharmacology, 2021).
Several values for one entry are separate records, joined by “and”; a condition that tells them apart may be missing. Equal entries are not always repeated. Bridge positions count the residues as written; N and C are the ends. Peptide text beside a SMILES is read from it.

Key:
[1] = target: T1, α7 nAChRs (Homo sapiens, UniProt P36544)
[2] = target: T1, α7 nAChRs; remark: listed apart in the source
[3] = target: Ls-AChBP (Lymnaea stagnalis, UniProt P58154); experiment: biochemical; conditions: SEM
Sequence of Ls-AChBP (P58154 20-229 limits assumed): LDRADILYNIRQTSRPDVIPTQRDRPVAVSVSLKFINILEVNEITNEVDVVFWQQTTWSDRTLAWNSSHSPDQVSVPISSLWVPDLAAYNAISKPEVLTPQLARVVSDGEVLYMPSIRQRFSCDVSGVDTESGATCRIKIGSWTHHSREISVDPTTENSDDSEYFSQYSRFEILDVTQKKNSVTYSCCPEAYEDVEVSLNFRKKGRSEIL

T1 sequence (P36544 23-502): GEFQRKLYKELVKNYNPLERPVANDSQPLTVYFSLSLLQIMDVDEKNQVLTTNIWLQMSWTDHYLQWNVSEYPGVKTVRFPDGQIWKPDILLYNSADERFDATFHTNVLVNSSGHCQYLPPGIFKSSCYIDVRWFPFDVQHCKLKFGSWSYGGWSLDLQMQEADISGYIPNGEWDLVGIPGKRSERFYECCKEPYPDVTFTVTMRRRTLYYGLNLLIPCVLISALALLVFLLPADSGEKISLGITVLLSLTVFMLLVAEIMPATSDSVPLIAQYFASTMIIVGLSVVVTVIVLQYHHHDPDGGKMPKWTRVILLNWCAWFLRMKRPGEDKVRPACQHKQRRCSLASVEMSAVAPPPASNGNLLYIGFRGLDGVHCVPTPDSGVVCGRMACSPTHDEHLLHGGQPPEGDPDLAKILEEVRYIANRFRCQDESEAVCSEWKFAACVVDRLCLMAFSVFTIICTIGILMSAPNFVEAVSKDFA

Compound	extent of inhibition of α7 nAChR responses to choline [1]	residual response at TQS-α7 nAChRs [2]	IC50 [3]	also measured
CC[C@H](C)[C@@H]1NC(=O)[C@H](Cc2c[nH]cn2)NC(=O)[C@@H]2CCCN2C(=O)[C@H](CC(N)=O)NC(=O)[C@H](CC(N)=O)NC(=O)[C@H](C)NC(=O)[C@H](CC(N)=O)NC(=O)[C@@H]2CSSC[C@H](NC(=O)CN)C(=O)N[C@@H](CSSC[C@@H](C(=O)NCC(N)=O)NC1=O)C(=O)N[C@@H](CO)C(=O)N[C@@H](Cc1c[nH]cn1)C(=O)N1CCC[C@H]1C(=O)N[C@@H](C)C(=O)N2 [[V10A]OmIA] (H-GCCSHPACNANNPHICG-NH2; disulfide 2-8, 3-16)	–	–	–	Choline EC50 ± SEM at PNU120596-α7 nAChRs in the presence of peptide [1]: 7 ± 1.20 and 8 ± 0.47 and 11 ± 1.20; mode of antagonism at PNU120596-α7 nAChRs [1]: fully insurmountable antagonism; Fraction 2 ± SEM at PNU120596-modified α7 nAChRs ([1]; SEM): 0.58 ± 0.04 and 0.57 ± 0.11 and 0.37 ± 0.04; Choline EC50 ± SEM at TQS-α7 nAChRs in the presence of peptide [2]: 3 ± 0.20 and 4 ± 1.00 and 5 ± 0.48
CC[C@H](C)[C@@H]1NC(=O)[C@H](Cc2c[nH]cn2)NC(=O)[C@@H]2CCCN2C(=O)[C@H](CC(N)=O)NC(=O)[C@H](CC(N)=O)NC(=O)[C@H](C(C)C)NC(=O)[C@H](CC(N)=O)NC(=O)[C@@H]2CSSC[C@H](NC(=O)CN)C(=O)N[C@@H](CSSC[C@@H](C(=O)NCC(N)=O)NC1=O)C(=O)N[C@@H](CO)C(=O)N[C@@H](Cc1c[nH]cn1)C(=O)N1CCC[C@H]1C(=O)N[C@@H](C)C(=O)N2 [OmIA] (H-GCCSHPACNVNNPHICG-NH2; disulfide 2-8, 3-16)	~50%	~15%	–	–
CC[C@H](C)[C@@H]1NC(=O)[C@H](Cc2c[nH]cn2)NC(=O)[C@@H]2CCCN2C(=O)[C@H](CC(N)=O)NC(=O)[C@H](CC(N)=O)NC(=O)[C@H]([C@@H](C)O)NC(=O)[C@H](CC(N)=O)NC(=O)[C@@H]2CSSC[C@H](NC(=O)CN)C(=O)N[C@@H](CSSC[C@@H](C(=O)NCC(N)=O)NC1=O)C(=O)N[C@@H](CO)C(=O)N[C@@H](Cc1c[nH]cn1)C(=O)N1CCC[C@H]1C(=O)N[C@@H](C)C(=O)N2 [[V10T]OmIA] (H-GCCSHPACNTNNPHICG-NH2; disulfide 2-8, 3-16)	–	–	1000 ± 50 nM	residual response at PNU120596-α7 nAChRs [1]: 60%
CC[C@H](C)[C@@H]1NC(=O)[C@H](Cc2c[nH]cn2)NC(=O)[C@@H]2CCCN2C(=O)[C@H](CC(N)=O)NC(=O)[C@H](CC(N)=O)NC(=O)[C@H](C(C)C)NC(=O)[C@H](Cc2c[nH]cn2)NC(=O)[C@@H]2CSSC[C@H](NC(=O)CN)C(=O)N[C@@H](CSSC[C@@H](C(=O)NCC(N)=O)NC1=O)C(=O)N[C@@H](CO)C(=O)N[C@@H](Cc1c[nH]cn1)C(=O)N1CCC[C@H]1C(=O)N[C@@H](C)C(=O)N2 [[N9H]OmIA] (H-GCCSHPACHVNNPHICG-NH2; disulfide 2-8, 3-16)	~50%	~15%	730 ± 50 nM	–
CC[C@H](C)[C@@H]1NC(=O)[C@H](Cc2cnc[nH]2)NC(=O)[C@@H]2CCCN2C(=O)[C@H](CC(N)=O)NC(=O)[C@H](CC(N)=O)NC(=O)[C@H](C(C)C)NC(=O)[C@H](CC(N)=O)NC(=O)[C@@H]2CSSC[C@H](NC(=O)CN)C(=O)N[C@@H](CSSC[C@@H](C(=O)NCC(N)=O)NC1=O)C(=O)N[C@@H](CO)C(=O)N[C@@H](Cc1cnc[nH]1)C(=O)N1CCC[C@H]1C(=O)N[C@@H](C)C(=O)N2 [OmIA] (H-GCCSHPACNVNNPHICG-NH2; disulfide 2-8, 3-16)	–	–	280 ± 70 nM	–
CC[C@H](C)[C@@H]1NC(=O)[C@H](Cc2c[nH]cn2)NC(=O)[C@@H]2CCCN2C(=O)[C@H](CC(N)=O)NC(=O)[C@H](CC(N)=O)NC(=O)[C@H](CC(C)C)NC(=O)[C@H](CC(N)=O)NC(=O)[C@@H]2CSSC[C@H](NC(=O)CN)C(=O)N[C@@H](CSSC[C@@H](C(=O)NCC(N)=O)NC1=O)C(=O)N[C@@H](CO)C(=O)N[C@@H](Cc1c[nH]cn1)C(=O)N1CCC[C@H]1C(=O)N[C@@H](C)C(=O)N2 [[V10L]OmIA] (H-GCCSHPACNLNNPHICG-NH2; disulfide 2-8, 3-16)	–	–	680 ± 130 nM	increase of OmIA IC50 at TQS-α7 nAChRs [2]: 10 fold
